This note sets out measurements from patent US20030171544A1, “Alcohol dehydrogenase and use thereof” (DEGUSSA AG, priority 2001, published 2003).

The subject of the experiment is alcohol dehydrogenase (ADHF1). The experiment is described as follows: Reduction of ketones with lyophilized recombinant ADHF1 crude extract, GC analysis. Format: biochemical, Pseudomonas fluorescens (DSM 50106). The conditions noted are these: for Conversion: Table 1, GC analysis, 6.4 μmol substrate, 1.25 mg enzyme crude extract, 0.1 M Tris pH 8.0, 20% (v/v) isopropanol, room temperature, time 20-21 h. Here is the method: The activity of lyophilized alcohol dehydrogenase is determined using acetophenone as model substrate. The standardized reaction mixture (250 μl) contains 6.4 μmol of substrate dissolved in isopropanol, 1.25 mg of enzyme (crude extract) in 0.1 M Tris buffer (pH 8.0) and 20% (v/v) isopropanol as substrate for NADH-recycling dehydrogenase. The reactions are carried out at room temperature, unless explicitly stated otherwise. All values were determined three times. After the reaction has finished, the reaction mixture is extracted with twice the amount of chloroform and the organic phase is then dried over sodium sulfate. The reaction products were analyzed isothermally at 120° C. by GC measurements (Shimadzu GC 14A, Tokyo, flame ionization detector, integrator C5RA) using a chiral column (heptakis (2,6-O-methyl-3-O-pentyl)-β-cyclodextrin, 25m×0.25mm ID, Macherey & Nagel, Düren). The retention times are 1.55 min for acetophenone, 2.77 min for (R)-α-phenylethanol and 2.99 min for (S)-α-phenylethanol. The absolute configuration was determined by using commercial standards. Further GC analyses were carried out at a temperature rising from 90° C. to 120° C. at a rate of 5° C./min. Here the retention times were 0.95 min for cyclopentanone, 1.37 min for cyclopentanol, 2.85 min for cycloheptanone, 4.29 min for cycloheptanol, 1.42 min for cyclohexanone and 2.12 min for cyclohexanol.

The structures appear in SMILES notation. Marks after values point to notes of the source that are not given here.

In the case of `O=C1CCCC1` [Cyclopentanone], the Conversion is recorded as 53%.

As to `O=C1CCCCC1` [Cyclohexanone], the Conversion is given as 100%. Regarding `O=C1CCCCCC1` [Cycloheptanone], the Conversion was 51%. In the case of `CC(=O)c1ccccc1` [Substrate 1, acetophenone], the Conversion was 95^b %. Also, the “yield of (R)-α-phenylethanol” value (conversion of acetophenone by ADHF1) was determined as 95%.
